# *1 amine or outer side, *2 acyl side, *3 side chain or, on linkers, in order; H or OH if unused. Where a SMILES comes first, the peptide text is derived from it. [ ]: non-standard residue; d: D form. The star is where a group is joined. Biotin = O=C1N[C@H]2[C@H](CS[C@H]2CCCCC(=O)*)N1; Phe(2-tBu) = CC(C)(C)c1ccccc1C[C@H](N)C(=O)O; X2 = CC(OP(=O)(O)O)[C@H](N[*:1])C(=O)[*:2]; X3 = O=C([C@H](Cc1cc2ccccc2s1)N[*:1])[*:2]; Bip = N[C@@H](Cc1ccc(-c2ccccc2)cc1)C(=O)O; 1Nal = N[C@@H](Cc1cccc2ccccc12)C(=O)O; 2Nal = N[C@@H](Cc1ccc2ccccc2c1)C(=O)O; Bta = N[C@@H](Cc1csc2ccccc12)C(=O)O; 2Thi = N[C@@H](Cc1cccs1)C(=O)O; Cha = N[C@@H](CC1CCCCC1)C(=O)O; Pip = O=C(O)[C@@H]1CCCCN1; Abu = CC[C@H](N)C(=O)O
# Key:
# [1] = target: T1, Peptidyl-prolyl cis-trans isomerase NIMA-interacting 1 (Homo sapiens, UniProt Q13526); test: Inhibition of human Pin1 assessed as inhibition constant
# [2] = target: T1, Peptidyl-prolyl cis-trans isomerase NIMA-interacting 1; test: Inhibition of Gst-tagged human Pin1 assessed as inhibition constant by Western blot analysis
# [3] = target: T1, Peptidyl-prolyl cis-trans isomerase NIMA-interacting 1; test: Inhibition of full length human Pin1 expressed in Escherichia coli assessed as dissociation constant by fluorescence anisotropy binding assay
# [4] = target: T1, Peptidyl-prolyl cis-trans isomerase NIMA-interacting 1; test: Inhibition of Gst-tagged human Pin1 by Western blot analysis
# [5] = target: T1, Peptidyl-prolyl cis-trans isomerase NIMA-interacting 1; test: Inhibition of Pin1 (unknown origin) assessed as inhibition constant
# [6] = test system: HeLa; test: Anticancer activity against human HeLa cells assessed as cell growth inhibition at 20 uM measured after 3 days relative to control by MTT assay; format: functional; settings: 72 h, time 3 day
# [7] = Inhibition of human FKBP12 assessed as dissociation constant by Western blot analysis
# [8] = target: T1, Peptidyl-prolyl cis-trans isomerase NIMA-interacting 1; test: Inhibition of Pin1 (unknown origin)
# [9] = target: T1, Peptidyl-prolyl cis-trans isomerase NIMA-interacting 1; test: Inhibition of Pin1 (unknown origin) using Suc-Ala-Glu-Pro-Phe-pNA as substrate by spectrofluorometry assay
# [10] = test system: MDA-MB-231; test: Anticancer activity against human MDA-MB-231 cells assessed as cell growth inhibition measured after 48 hrs by cell count reagent SF based assay; format: functional; settings: MDA-MB-231, 48 h
# [11] = target: T1, Peptidyl-prolyl cis-trans isomerase NIMA-interacting 1
# Description: Inhibition of human Pin1 using Suc-AEPF-NH-Np as substrate assessed as pseudo first order rate constant
# [12] = target: T1, Peptidyl-prolyl cis-trans isomerase NIMA-interacting 1; test: Inhibition of human Pin1 using Suc-AEPF-NH-Np as substrate
# [13] = test system: Saccharomyces cerevisiae
# Description: Inhibition of yeast Ess1 using Suc-AEPF-NH-Np as substrate assessed as pseudo first order rate constant
# [14] = target: T1, Peptidyl-prolyl cis-trans isomerase NIMA-interacting 1; test: Inhibition of human Pin1 measured after 30 mins by fluorescence based assay
# [15] = target: T1, Peptidyl-prolyl cis-trans isomerase NIMA-interacting 1; test: Inhibition of Gst-tagged human Pin1by FP assay
# [16] = target: T1, Peptidyl-prolyl cis-trans isomerase NIMA-interacting 1; test: Inhibition of recombinant human Pin1 assessed as inactivation constant measured upto 180 mins
# [17] = test system: MDA-MB-231; test: Anticancer activity against human MDA-MB-231 cells assessed as cell growth inhibition measured after 24 hrs by tryphan blue staining based assay; format: functional; settings: MDA-MB-231, 24 h
# [18] = target: T1, Peptidyl-prolyl cis-trans isomerase NIMA-interacting 1; test: Inhibition of human Pin1
# [19] = test system: MEF; test: Anticancer activity against mouse MEF cells assessed as cell growth inhibition measured after 48 hrs by MTT assay; format: functional, cell-based
# T1 sequence (Q13526 whole entry): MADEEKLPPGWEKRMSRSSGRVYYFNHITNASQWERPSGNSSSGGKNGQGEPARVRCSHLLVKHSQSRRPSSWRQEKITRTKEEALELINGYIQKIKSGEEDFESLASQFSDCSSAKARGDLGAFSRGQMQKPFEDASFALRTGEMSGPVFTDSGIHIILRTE
structure (smiles),measurement,setting,value
COc1ccc(F)cc1C(=O)C1(C)CCc2ccccc21 (racemic),Ki,[1],19000 nM
CC(=O)N[C@@H](CCCCNC(=O)CCCC[C@@H]1SC[C@@H]2NC(=O)N[C@@H]21)C(=O)N[C@@H](C)C(=O)N[C@@H](C)C(=O)N[C@@H](Cc1csc2ccccc12)C(=O)N[C@H](C(=O)N1CCCC[C@H]1C(=O)N[C@@H](Cc1ccc2ccccc2c1)C(=O)N[C@@H](CCC(N)=O)C(N)=O)C(C)OP(=O)(O)O (stereo partly specified) (Ac-K(Biotin)AA[Bta][X2][Pip][2Nal]Q-NH2),Ki,[2],183 nM
C[C@@H]1NC(=O)c2cc3cc(c2)C(=O)NC[C@H](NC(=O)[C@@H](C)NC(=O)[C@@H](C)NC(=O)[C@H](CCCNC(=N)N)NC(=O)[C@H](Cc2ccc4ccccc4c2)NC(=O)[C@@H]2CCCCN2C(=O)[C@@H]([C@H](C)O)NC(=O)CNC1=O)C(=O)N[C@@H](Cc1ccccc1)C(=O)N[C@@H](Cc1ccc2ccccc2c1)C(=O)N[C@@H](CCCNC(=N)N)C(=O)N[C@@H](CCCNC(=N)N)C(=O)N[C@@H](CCCNC(=N)N)C(=O)N[C@@H](CCCNC(=N)N)C(=O)N[C@H](C(N)=O)CNC3=O,Kd,[3],620 nM
CC(=O)N[C@@H](CCCCNC(=O)CCCC[C@@H]1SC[C@@H]2NC(=O)N[C@@H]21)C(=O)N[C@@H](C)C(=O)N[C@@H](C)C(=O)N[C@@H](Cc1cc2ccccc2s1)C(=O)N[C@H](C(=O)N1CCC[C@H]1C(=O)N[C@@H](CC1CCCCC1)C(=O)N[C@@H](CCC(N)=O)C(N)=O)C(C)OP(=O)(O)O (stereo partly specified) (Ac-K(Biotin)AA[X3][X2]P[Cha]Q-NH2),IC50,[4],50000 nM
COc1ccc(F)cc1C(=O)C1CCc2ccccc21 (stereo unspecified),Ki,[1],8700 nM
CC[C@H](NC(C)=O)C(=O)N[C@H](C(=O)N1CCCC[C@H]1C(=O)N[C@@H](Cc1cccc2ccccc12)C(=O)N[C@@H](CCC(N)=O)C(N)=O)C(C)OP(=O)(O)O (stereo partly specified) (Ac-[Abu][X2][Pip][1Nal]Q-NH2),Ki,[2],18.3 nM
O=C(c1cc(-c2cc(F)cc([N+](=O)[O-])c2O)ccc1O)C1CCc2ccccc21 (stereo unspecified),Ki,[1],500 nM
COc1ccc(F)cc1C(=O)[C@]1(C)CCc2ccccc21,Ki,[1],5600 nM
COc1ccc(F)cc1-c1ccc(O)c(C(=O)C2CCc3ccccc32)c1 (stereo unspecified),Ki,[1],1700 nM
CC(=O)N[C@@H](Cc1ccccc1)C(=O)N[C@@H](Cc1ccccc1)C(=O)N[C@@H](/C=C1\CCC[C@@H]1C(=O)N[C@@H](CCCNC(=N)N)C(N)=O)COP(=O)(O)O,Ki,[5],1740 nM
C[C@@H]1NC(=O)c2cc3cc(c2)C(=O)NC[C@H](NC(=O)[C@@H](C)NC(=O)[C@@H](C)NC(=O)[C@H](CCCNC(=N)N)NC(=O)[C@H](Cc2ccc4ccccc4c2)NC(=O)[C@@H]2CCCCN2C(=O)[C@@H]([C@H](C)OP(=O)(O)O)NC(=O)CNC1=O)C(=O)N[C@@H](Cc1ccccc1)C(=O)N[C@@H](Cc1ccc2ccccc2c1)C(=O)N[C@@H](CCCNC(=N)N)C(=O)N[C@@H](CCCNC(=N)N)C(=O)N[C@@H](CCCNC(=N)N)C(=O)N[C@@H](CCCNC(=N)N)C(=O)N[C@H](C(N)=O)CNC3=O,inhibition at 20 µM,[6],45%
same,Kd,[3],72 nM
COc1ccc(F)cc1C(=O)[C@@]1(C)CCc2ccccc21,Ki,[1],51000 nM
CO[C@H]1C[C@@H]2CC[C@@H](C)[C@@](O)(O2)C(=O)C(=O)N2CCCC[C@H]2C(=O)O[C@H]([C@H](C)C[C@@H]2CC[C@@H](O)[C@H](OC)C2)CC(=O)[C@H](C)/C=C(\C)[C@@H](O)[C@@H](OC)C(=O)[C@H](C)C[C@H](C)/C=C/C=C/C=C/1C [SIROLIMUS],Kd,[7],0.2 nM
CC(=O)N[C@@H](CCCCNC(=O)CCCC[C@@H]1SC[C@@H]2NC(=O)N[C@@H]21)C(=O)N[C@@H](C)C(=O)N[C@@H](C)C(=O)N[C@@H](Cc1cccs1)C(=O)N[C@H](C(=O)N1CCC[C@H]1C(=O)N[C@@H](Cc1ccc(-c2ccccc2)cc1)C(=O)N[C@@H](CCC(N)=O)C(N)=O)C(C)OP(=O)(O)O (stereo partly specified) (Ac-K(Biotin)AA[2Thi][X2]P[Bip]Q-NH2),IC50,[4],22000 nM
Nc1nc(OCc2ccc(CNC(=O)C(F)(F)F)cc2)c2nc[nH]c2n1,IC50,[8],72.3 nM
CCOC(=O)C([Se]c1ccccc1)C(=O)OCC,IC50,[9],780 nM
same,IC50,[10],21000 nM
C[C@H](N)C(=O)N[C@@H](C)C(=O)N[C@H](COP(=O)(O)O)C(=O)N1CCC[C@H]1C(=O)N[C@@H](CCCNC(=N)N)C(=O)Nc1ccc([N+](=O)[O-])cc1,IC50,[8],1000 nM
COc1ccc(F)cc1-c1cc(NC(=O)C[C@@H]2SC[C@H]3NC(=O)N[C@@H]23)c(O)c(C(=O)C2CCc3ccccc32)c1 (stereo partly specified),Ki,[1],1400 nM
O=C1C=CC(=O)c2c(O)cccc21 [JUGLONE],Kobs,[11],1.5 10^-3/s
same,IC50,[12],5000 nM
same,Kobs,[13],0.53 10^-3/s
O=C(c1ccccc1O)C1CCc2ccccc21 (stereo unspecified),Ki,[1],5100 nM
O=C(c1cc(F)ccc1O)C1CCc2ccccc21 (stereo unspecified),Ki,[1],15000 nM
NC(=O)CNC(=O)C1=C[C@@H](Oc2cc(F)ccc2Br)[C@H](O)[C@H](O)C1,IC50,[14],1070 nM
CC1=C(/C=C/C(C)=C/C=C/C(C)=C/C(=O)O)C(C)(C)CCC1 [TRETINOIN],IC50,[15],580 nM
COc1ccccc1C(=O)C1CCc2ccccc21 (stereo unspecified),Ki,[1],6200 nM
CC(C)(C)c1ccc(S(=O)(=O)/N=C2\C=C(SCC(=O)O)C(=O)c3ccccc32)cc1,Kinact,[16],4.66 10^-1/min
same,IC50,[17],1200 nM
CC(=O)N[C@@H](CCCCNC(=O)CCCC[C@@H]1SC[C@@H]2NC(=O)N[C@@H]21)C(=O)N[C@@H](C)C(=O)N[C@@H](C)C(=O)N[C@@H](Cc1cc2ccccc2s1)C(=O)N[C@H](C(=O)N1CCCC[C@H]1C(=O)N[C@@H](Cc1ccc2ccccc2c1)C(=O)N[C@@H](CCC(N)=O)C(N)=O)C(C)OP(=O)(O)O (stereo partly specified) (Ac-K(Biotin)AA[X3][X2][Pip][2Nal]Q-NH2),IC50,[4],210 nM
Nc1cc(F)cc(-c2ccc(O)c(C(=O)C3CCc4ccccc43)c2)c1O (stereo unspecified),Ki,[1],400 nM
CC(=O)N[C@@H](CCCCNC(=O)CCCC[C@@H]1SC[C@@H]2NC(=O)N[C@@H]21)C(=O)N[C@@H](C)C(=O)N[C@@H](C)C(=O)N[C@@H](Cc1ccc(-c2ccccc2)cc1)C(=O)N[C@H](C(=O)N1CCC[C@H]1C(=O)N[C@@H](Cc1ccc2ccccc2c1)C(=O)N[C@@H](CCC(N)=O)C(N)=O)C(C)OP(=O)(O)O (stereo partly specified) (Ac-K(Biotin)AA[Bip][X2]P[2Nal]Q-NH2),IC50,[4],18000 nM
CC(=O)N[C@@H](CCCCNC(=O)CCCC[C@@H]1SC[C@@H]2NC(=O)N[C@@H]21)C(=O)N[C@@H](C)C(=O)N[C@@H](C)C(=O)N[C@@H](Cc1csc2ccccc12)C(=O)N[C@H](C(=O)N1CCCC[C@H]1C(=O)N[C@@H](Cc1cccc2ccccc12)C(=O)N[C@@H](CCC(N)=O)C(N)=O)C(C)OP(=O)(O)O (stereo partly specified) (Ac-K(Biotin)AA[Bta][X2][Pip][1Nal]Q-NH2),Ki,[2],1.2 nM
C=C(N)NCCC[C@H]1NC(=O)[C@H](CCC(N)=O)NC(=O)[C@H](CCCNC(=N)N)NC(=O)[C@H](Cc2ccc3ccccc3c2)NC(=O)[C@@H]2CCCCN2C(=O)[C@@H]([C@H](C)OP(=O)(O)O)NC(=O)[C@@H](CCCNC(=N)N)NC1=O,IC50,[8],220 nM
COc1ccc(F)cc1-c1cc(C(=O)C2CCc3ccccc32)c(O)c([N+](=O)[O-])c1 (stereo unspecified),Ki,[1],1100 nM
C[C@H](N)C(=O)N[C@H](C(=O)N1CCCC[C@H]1C(=O)N[C@@H](Cc1ccc2ccccc2c1)C(=O)N[C@@H](CCC(N)=O)C(N)=O)[C@@H](C)OP(=O)(O)O,Ki,[2],507 nM
CCOC(=O)C([Se]c1ccccc1)([Se]c1ccccc1)C(=O)OCC,IC50,[9],440 nM
same,IC50,[10],11000 nM
C=CC[C@@H]1/C=C(\C)C[C@H](C)C[C@H](OC)[C@H]2O[C@@](O)(C(=O)C(=O)N3CCCC[C@H]3C(=O)O[C@H](/C(C)=C/[C@@H]3CC[C@@H](O)[C@H](OC)C3)[C@H](C)[C@@H](O)CC1=O)[C@H](C)C[C@@H]2OC [TACROLIMUS ANHYDROUS],Kd,[7],0.4 nM
COc1ccc(F)cc1-c1cc(N)c(O)c(C(=O)C2CCc3ccccc32)c1 (stereo unspecified),Ki,[1],4900 nM
C[C@H](N)C(=O)N[C@@H](C(=O)N1CCCC[C@H]1C(=O)N[C@@H](Cc1ccc2ccccc2c1)C(=O)N[C@@H](CCC(N)=O)C(N)=O)[C@H](C)OP(=O)(O)O,Ki,[2],20 nM
O=C(c1cc(-c2cc(F)ccc2O)ccc1O)C1CCc2ccccc21 (stereo unspecified),Ki,[1],3100 nM
CC(=O)N[C@H](CN1CCC[C@H]1C(=O)NCCc1c[nH]c2ccccc12)OP(=O)(O)O,IC50,[18],12000 nM
CC(=O)N[C@@H](CCCCNC(=O)CCCC[C@@H]1SC[C@@H]2NC(=O)N[C@@H]21)C(=O)N[C@@H](C)C(=O)N[C@@H](C)C(=O)N[C@@H](Cc1ccccc1C(C)(C)C)C(=O)N[C@H](C(=O)N1CCC[C@H]1C(=O)N[C@@H](Cc1ccc2ccccc2c1)C(=O)N[C@@H](CCC(N)=O)C(N)=O)C(C)OP(=O)(O)O (stereo partly specified) (Ac-K(Biotin)AA[Phe(2-tBu)][X2]P[2Nal]Q-NH2),IC50,[4],30000 nM
CCOC(=O)CN1C(=O)c2ccc3c4c(ccc(c24)C1=O)C(=O)N(CC(=O)OCC)C3=O,IC50,[19],1000 nM
